Results published in patent US20230190933A1, “Immunologically Active Peptide-Biliverdin Conjugate, Preparation Method Therefor and Application Thereof” (priority 2020, published 2023).
Where no end group is shown, it is not given here.

Key:
[1] = test system: cervical cancer U14 mouse model; details: 5 mg kg^-1 intraperitoneally; 2nd, 4th and 7th day
[2] = test system: in-situ model of pancreatic cancer Pan02; details: 4 mg kg^-1, presence and absence of light (730 nm, 0.5 W/cm^2), 15th day
[3] = test system: mouse breast cancer cells 4T1; details: absence of light; 100 uL of 0.2 mg mL^-1 intraperitoneally on day 1, 2, 4, 8; 28 days
[4] = temperature rise in vitro under laser irradiation; assay type: physicochemical; details: 0.2 mg mL^-1, 730 nm laser, 0.3 W/cm^2, 10 min
Description: Firstly, biliverdin-Mn metal complex was chemically synthesized by biliverdin and excess manganese acetate tetrahydrate, and the biliverdin-Mn-[…] conjugate was prepared from biliverdin-Mn metal complex and […] according to the aforementioned chemical synthesis method. […] 1 mL of this conjugate (at a concentration of 0.2 mg mL^-1) was irradiated at 730 nm laser (0.3 W/cm^2) for 10 min, and the temperature rise of the conjugate solution was investigated.

[5] = test system: lung cancer Lewis; experiment: combination of photothermal immunotherapy and immunotherapy (interferon); assay type: in vivo; details: conjugate 3 mg kg^-1 combined with interferon 20U/ mouse, initial volume 300 mm^3
Description: (§1) The biliverdin-[…] conjugate was prepared from biliverdin molecule and […] according to the above chemical synthesis method.

[6] = test system: skin melanoma B16-F10; experiment: as above; assay type: in vivo; details: conjugate 3 mg kg^-1 combined with interferon 20U/ mouse, initial volume 300 mm^3
Description: as §1

[7] = test system: mouse colon cancer cells ct-26
Description: According to the standard tumor mouse modeling method, C57BL/6 mouse model was established, and the mouse colon cancer cells ct-26 were inoculated subcutaneously, and then these mice were fed in SPF environment. […] The mice were divided into the following four groups: blank group (normal saline), conjugate group (no light group) and conjugate group (light group), with 10 mice in each group. These mice were administered once on the 1st, 3rd, 8th and 12th day with the administration concentration being 2 mg kg^-1. Wherein, the mice of the conjugate (light group) were irradiated with laser once 4 hours after administration on the first day, and the parameters were as follows: the laser intensity was 0.5 W/cm^2 and the laser wavelength was 808 nm. The tumor inhibition of mice during the whole treatment cycle (the cycle is 45 days) was monitored.

[8] = cyclic (three) photothermal heating curves; assay type: physicochemical; details: compared with biliverdin molecule; three heating cycles
[9] = test system: Human Umbilical Vein Endothelial Cells HUVEC; experiment: MTT colorimetric method, incubation in the dark; assay type: cell-based; details: different concentration gradients
Description: The biliverdin-[…] conjugate was prepared from biliverdin molecule and […] according to the chemical synthesis method of Example 1. […] The prepared conjugates with different concentration gradients were incubated with Human Umbilical Vein Endothelial Cells HUVEC in the dark, and the biological safety of the conjugates was evaluated by MTT colorimetric method.

Substance: biliverdin-EQLESIINFEKLTE conjugate [Example 13]
- immune effect (CD4+T and CD8+T cells in spleen and draining lymph nodes) [1]: has immune effect

Substance: biliverdin-Ga-FKFEFKFE conjugate [Example 10]
- immune promoting factor content in tumor (IFN-7) [2]: up-regulate the organism’s immunity
- immune suppressing factor content in tumor (IL-4 and IL-10) [2]: down-regulate the immunosuppressive behavior

Substance: biliverdin-IMDQVPFSV conjugate [Example 8]
- anti-tumor behavior (tumor volume) [3]: potential immune anti-tumor activity

Substance: biliverdin-Mn-YLEPGPVTA conjugate [Example 7]
- photo-thermal conversion effect (temperature rise) [4]: good photo-thermal conversion effect

Substance: biliverdin-PDRAHYNI conjugate [Example 15]
- combined inhibitory effect on tumor [5]: significantly enhances the anti-tumor effect
- combined inhibitory effect on tumor [6]: significantly enhances the anti-tumor effect

Substance: biliverdin-QQKFQFQFEQQ conjugate [Example 9]
- therapeutic effect of tumor photothermal immunotherapy (tumor inhibition curve) ([7]; 2 mg kg^-1 on day 1, 3, 8, 12, 45 day cycle): good therapeutic effect
- tumor clearance ([7]; light group, 2 mg kg^-1, 808 nm 0.5 W/cm^2, 29th day after treatment): all the mice tumors were cleared
- tumor recurrence ([7]; light group, monitored from the 30th day to the 45th day): can effectively prevent tumor recurrence

Substance: biliverdin-SIINFEKL conjugate [Example 1]
- cyclic stability of photothermal heating [8]: better cyclic stability
- photothermal heating effect [8]: better heating effect
- cytotoxicity (cell activity) [9]: no obvious cytotoxicity
